In PubChem BioAssay (NCI):
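The compound was tested at five concentrations on cells cultured in 96-well plates, with a 48-hour exposure period. The concentration for 50% growth inhibition is given as GI50. The concentration for full growth arrest is given as TGI.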

Assays:
Test in all cases: NCI-60 cell line screen, 48 h
UACC-257 melanoma = tested on: UACC-257 melanoma
EKVX NSCLC = tested on: EKVX NSCLC
SK-MEL-5 melanoma = tested on: SK-MEL-5 melanoma
786-0 renal = tested on: 786-0 renal
HCT-116 colon = tested on: HCT-116 colon
HOP-92 NSCLC = tested on: HOP-92 NSCLC
HL-60(TB) leukemia = tested on: HL-60(TB) leukemia
ACHN renal = tested on: ACHN renal
COLO 205 colon = tested on: COLO 205 colon
CAKI-1 renal = tested on: CAKI-1 renal

Row | SMILES | TGI (UACC-257 melanoma) | TGI (EKVX NSCLC) | TGI (SK-MEL-5 melanoma) | TGI (786-0 renal) | TGI (HCT-116 colon) | TGI (HOP-92 NSCLC) | TGI (HL-60(TB) leukemia) | TGI (ACHN renal) | TGI (COLO 205 colon) | TGI (CAKI-1 renal) | GI50 (UACC-257 melanoma) | GI50 (EKVX NSCLC) | GI50 (SK-MEL-5 melanoma) | GI50 (786-0 renal) | GI50 (HCT-116 colon) | GI50 (HOP-92 NSCLC) | GI50 (HL-60(TB) leukemia) | GI50 (ACHN renal) | GI50 (COLO 205 colon) | GI50 (CAKI-1 renal)
1 | Cn1c(-c2ccccc2)c/c(=N\NS(C)(=O)=O)c2cc(S(=O)(=O)O)ccc21 | > 100 µM | > 100 µM | > 100 µM | > 100 µM | > 100 µM | > 100 µM | > 100 µM | > 100 µM | > 100 µM | > 100 µM | – | – | – | – | – | – | – | – | – | –
2 | COC(=O)c1c/c(=N\NC(=O)CC(=O)Nc2ccc(C)cc2)c2ccccc2o1 | > 100 µM | > 100 µM | > 100 µM | > 100 µM | > 100 µM | > 100 µM | > 100 µM | > 100 µM | > 100 µM | > 100 µM | – | – | – | – | – | – | – | – | – | –
3 | COc1ccc(C2SC(C)C(=O)N2NC(=O)C(O)c2ccccc2)cc1 (stereo not given) | > 100 µM | > 100 µM | > 100 µM | > 100 µM | > 100 µM | > 100 µM | > 100 µM | > 100 µM | > 100 µM | > 100 µM | > 100 µM | > 100 µM | > 100 µM | > 100 µM | > 100 µM | > 100 µM | > 100 µM | > 100 µM | > 100 µM | > 100 µM
4 | COC(=O)c1cc(O)ccc1NC(=O)c1ccc(O)cc1 | > 100 µM | > 100 µM | > 100 µM | > 100 µM | > 100 µM | > 100 µM | > 100 µM | > 100 µM | > 100 µM | > 100 µM | – | – | – | – | – | – | – | – | – | –
5 | Cc1ccc(C2CC(c3cccc(Nc4ccncc4)c3)=NN2c2ccc(Cl)cc2)cc1 (stereo not given) | – | 2.88 µM | 3.16 µM | 3.16 µM | 3.71 µM | 2.74 µM | 4 µM | 2.99 µM | 3.6 µM | 2.97 µM | – | 1.48 µM | 1.76 µM | 1.71 µM | 1.84 µM | 1.38 µM | 1.92 µM | 1.63 µM | 1.73 µM | 1.51 µM
6 | Nc1nn(C(=O)Nc2ccc(Cc3ccccc3)cc2)c2ccccc12 | 50.9 µM | 92 µM | 8.64 µM | 26.2 µM | > 100 µM | 42.6 µM | 15.2 µM | 33.4 µM | 37.7 µM | 58 µM | 10 µM | 11.2 µM | 2.22 µM | 3.76 µM | 7.03 µM | 14.2 µM | 0.466 µM | 1.69 µM | 13.4 µM | 21.1 µM
7 | COc1cccc(-c2cc(NCc3ccc4c(c3)OCO4)nc(N)n2)c1 | – | 52.3 µM | 3.6 µM | 12.9 µM | 11.6 µM | 20.5 µM | 0.296 µM | 29.3 µM | 0.198 µM | 32.4 µM | – | 3.33 µM | 0.0432 µM | 0.0819 µM | 0.0473 µM | 4.04 µM | 0.0324 µM | 0.24 µM | 0.0466 µM | 1.06 µM
8 | COC(=O)/C(Cl)=C1/CC1COCc1ccccc1 (stereo not given) | > 100 µM | > 10 µM | 54.7 µM | 42.2 µM | – | 50.4 µM | 38.7 µM | 81.6 µM | 44.4 µM | 52.4 µM | – | – | – | – | – | – | – | – | – | –
